Measurements from patent US20240199623A1 (ILDONG PHARMACEUTICAL CO., LTD., priority 2020, published 2024).
Converted amounts (≈) assume the structure as drawn.

Assays:
[1] = Phosphate-buffered saline (PBS) solubility of compounds; type: physicochemical; conditions: aqueous buffer, thermodynamic from solid, PBS pH 7.5, 0.5 mg/mL, vortexed 90 min, filtered, LC-MS/MS, read-out: Solubility Range
Experimental: PBS solutions (pH 7.5) were prepared according to the following compositions and stored at 4° C. Test compounds were dissolved in PBS (pH 7.5) at 0.5 mg/mL and vortexed for 90 min. The PBS solution was sequentially filtered through a 0.45, 1.2, […] syringe filter. Concentration of test compounds were determined using LC-MS/MS with appropriate dilution of the samples.

human wild type-CFTR = human wild type-CFTR (Homo sapiens, UniProt P13569); assay: Cell-based YFP assay; design: expressed in transfected cells; host or cells: CHO-K1 (Chinese hamster ovary); conditions: CHO-K1 cells expressing human wild type-CFTR and YFP-H148Q/I152L; forskolin 20 μM = 100% activity; read-out: Cell-based YFP Assay (EC50) Concentration Range
Chain of human wild type-CFTR (P13569 whole entry): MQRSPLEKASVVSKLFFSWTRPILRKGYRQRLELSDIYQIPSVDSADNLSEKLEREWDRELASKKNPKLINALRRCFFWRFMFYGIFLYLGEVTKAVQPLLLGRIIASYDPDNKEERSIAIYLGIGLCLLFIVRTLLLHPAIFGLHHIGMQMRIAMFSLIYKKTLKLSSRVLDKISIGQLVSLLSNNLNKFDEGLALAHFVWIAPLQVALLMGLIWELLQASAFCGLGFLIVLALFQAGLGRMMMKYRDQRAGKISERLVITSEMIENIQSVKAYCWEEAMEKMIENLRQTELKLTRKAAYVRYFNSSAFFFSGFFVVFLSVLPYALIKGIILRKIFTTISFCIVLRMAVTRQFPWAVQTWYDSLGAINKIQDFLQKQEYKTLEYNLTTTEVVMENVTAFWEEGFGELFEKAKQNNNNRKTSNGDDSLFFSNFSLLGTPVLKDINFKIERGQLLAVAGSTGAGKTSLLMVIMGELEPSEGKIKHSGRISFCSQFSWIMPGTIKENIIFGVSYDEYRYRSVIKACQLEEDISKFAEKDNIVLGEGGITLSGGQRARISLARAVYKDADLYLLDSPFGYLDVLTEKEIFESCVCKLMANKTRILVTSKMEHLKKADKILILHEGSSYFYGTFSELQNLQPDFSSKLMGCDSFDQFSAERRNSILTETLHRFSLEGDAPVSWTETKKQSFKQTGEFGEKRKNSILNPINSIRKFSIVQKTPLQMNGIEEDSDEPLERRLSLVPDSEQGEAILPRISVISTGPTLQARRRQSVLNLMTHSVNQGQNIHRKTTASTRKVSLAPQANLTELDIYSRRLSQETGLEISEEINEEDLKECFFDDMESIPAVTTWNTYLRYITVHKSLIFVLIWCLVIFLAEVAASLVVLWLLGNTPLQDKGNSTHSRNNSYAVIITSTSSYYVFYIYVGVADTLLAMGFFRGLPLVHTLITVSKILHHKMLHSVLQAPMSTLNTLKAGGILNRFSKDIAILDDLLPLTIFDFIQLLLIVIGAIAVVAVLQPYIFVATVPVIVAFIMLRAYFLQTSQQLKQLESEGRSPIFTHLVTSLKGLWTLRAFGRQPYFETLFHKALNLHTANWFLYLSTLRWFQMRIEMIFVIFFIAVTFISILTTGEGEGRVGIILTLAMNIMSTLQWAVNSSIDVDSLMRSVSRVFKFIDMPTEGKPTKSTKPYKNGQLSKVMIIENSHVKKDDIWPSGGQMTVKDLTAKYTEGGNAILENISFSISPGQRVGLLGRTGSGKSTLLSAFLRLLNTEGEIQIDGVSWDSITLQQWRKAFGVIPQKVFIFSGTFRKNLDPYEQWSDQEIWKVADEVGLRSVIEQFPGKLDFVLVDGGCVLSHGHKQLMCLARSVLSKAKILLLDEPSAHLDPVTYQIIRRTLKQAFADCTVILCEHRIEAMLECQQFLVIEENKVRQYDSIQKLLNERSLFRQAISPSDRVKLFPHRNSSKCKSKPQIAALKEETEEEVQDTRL
Method in brief: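 CHO-K1 cells co-expressing human wild-type CFTR and YFP-H148Q/I152L halide sensor, grown 48 h at 37 °C, then in PBS. YFP quenching by I⁻ influx read at 37 °C after adding 140 mM I⁻ solution, sampled every 0.4 s for 14 s. Triplicates averaged; EC50 fitted.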

COc1ccc(-c2ccnc3cc(C(=O)Nc4ccc(NC(=O)[C@@H](NC(=O)OC(C)(C)C)C(C)C)cc4)nn23)cc1OC [Compound 282, tert-butyl (S)-(1-((4-(7-(3,4-dimethoxyphenyl)pyrazolo [1,5-a]pyrimidine-2-carboxamido)phenyl)amino)-3-methyl-1-oxobutan-2-yl)carbamate]
solubility at 90 min [1]: < 0.1 µg/mL | EC50 (human wild type-CFTR): < 200 nM

COc1ccc(-c2ccnc3cc(C(=O)Nc4ccc(C(=O)OCCN5CCOCC5)cc4)nn23)cc1OC [Compound 164, 2-morpholinoethyl 4-(7-(3,4-dimethoxyphenyl)pyrazolo [1,5-a]pyrimidine-2-carboxamido)benzoate]
solubility at 90 min [1]: < 0.1 µg/mL | EC50 (human wild type-CFTR): < 200 nM

COc1ccc(-c2ccnc3cc(C(=O)N4CCN(C(=O)OC(C)(C)C)CC4)nn23)cc1OC [Compound 62, tert-butyl 4-(7-(3,4-dimethoxyphenyl)pyrazolo[1,5-a]pyrimidine-2-carbonyl)piperazine-1-carboxylate]
solubility at 90 min [1]: 0.1 to 10 µg/mL (≈ 0.214 to 21.4 µM) | EC50 (human wild type-CFTR): 200 to 2000 nM

COc1ccc(-c2ccnc3cc(C(=O)Nc4ccc(C(=O)OCCCN5CCOCC5)c(F)c4)nn23)cc1OC [Compound 163, 3-morpholinopropyl 4-(7-(3,4-dimethoxyphenyl)pyrazolo [1,5-a]pyrimidine-2-carboxamido)-2-fluorobenzoate]
solubility at 90 min [1]: < 0.1 µg/mL | EC50 (human wild type-CFTR): 200 to 2000 nM

COC(=O)[C@H](CO)NC(=O)c1ccc(NC(=O)c2cc3nccc(-c4ccc(OC)c(OC)c4)n3n2)cc1 [Compound 43, methyl (4-(7-(3,4-dimethoxyphenyl)pyrazolo [1,5-a]pyrimidine-2-carboxamido)benzoyl)-L-serinate]
solubility at 90 min [1]: < 0.1 µg/mL | EC50 (human wild type-CFTR): < 200 nM

COc1ccc(-c2ccnc3cc(C(=O)N[C@H]4CC[C@@H](C(=O)N5CCN(C(=O)OC(C)(C)C)CC5)CC4)nn23)cc1OC [Compound 73, tert-butyl 4-((1S,4S)-4-(7-(3,4-dimethoxyphenyl)pyrazolo [1,5-a]pyrimidine-2-carboxamido)cyclohexane-1-carbonyl)piperazine-1-carboxylate]
solubility at 90 min [1]: 0.1 to 10 µg/mL (≈ 0.169 to 16.9 µM) | EC50 (human wild type-CFTR): 200 to 2000 nM

COc1ccc(-c2ccnc3cc(C(=O)N[C@H]4CC[C@@H](C(=O)OC)CC4)nn23)cc1OC [Compound 9, methyl (1S,4S)-4-(7-(3,4-dimethoxyphenyl)pyrazolo [1,5-a]pyrimidine-2-carboxamido)cyclohexane-1-carboxylate]
solubility at 90 min [1]: 0.1 to 10 µg/mL (≈ 0.228 to 22.8 µM)

COc1ccc(-c2ccnc3cc(C(=O)N4CCC(NC(=O)OC(C)(C)C)CC4)nn23)cc1OC [Compound 100, tert-butyl (1-(7-(3,4-dimethoxyphenyl)pyrazolo[1,5-a]pyrimidine-2-carbonyl)piperidin-4-yl)carbamate]
solubility at 90 min [1]: 0.1 to 10 µg/mL (≈ 0.208 to 20.8 µM)

COC(=O)c1cccc(NC(=O)c2cc3nccc(-c4ccc(OC)c(OC)c4)n3n2)c1 [Compound 8, methyl 3-(7-(3,4-dimethoxyphenyl)pyrazolo [1,5-a]pyrimidine-2-carboxamido)benzoate]
solubility at 90 min [1]: < 0.1 µg/mL

COc1ccc(-c2ccnc3cc(C(=O)N[C@H]4CC[C@H](C(=O)O)CC4)nn23)cc1OC [Compound 21, (1R,4R)-4-(7-(3,4-dimethoxyphenyl)pyrazolo [1,5-a]pyrimidine-2-carboxamido)cyclohexane-1-carboxylic acid]
solubility at 90 min [1]: > 10 µg/mL

COc1ccc(-c2ccnc3cc(C(=O)N4C[C@H](C)N(C(=O)c5ccccc5)[C@@H](C)C4)nn23)cc1OC [Compound 364, ((3S,5S)-4-benzoyl-3,5-dimethylpiperazin-1-yl) (7-(3,4-dimethoxyphenyl)pyrazolo[1,5-a]pyrimidin-2-yl)methanone]
EC50 (human wild type-CFTR): < 200 nM

COc1ccc(-c2ccnc3cc(C(=O)N4CCc5ccc(C(=O)N6CCN(C)CC6)cc5C4)nn23)cc1OC [Compound 237, (7-(3,4-dimethoxyphenyl)pyrazolo[1,5-a]pyrimidin-2-yl)(7-(4-methylpiperazine-1-carbonyl)-3,4-dihyroisoquinolin-2(1H)-yl)methanone]
EC50 (human wild type-CFTR): ≥ 2000 nM

COc1ccc(-c2ccnc3cc(C(=O)Nc4ccc(C(=O)N5CCC(N6CCOCC6)CC5)cc4F)nn23)cc1OC [Compound 349, 7-(3,4-dimethoxyphenyl)-N-(2-fluoro-4-(4-morpholinopiperidine-1-carbonyl)phenyl)pyrazolo [1,5-a]pyrimidine-2-carboxamide]
EC50 (human wild type-CFTR): < 200 nM

COc1ccc(-c2ccnc3cc(C(=O)NC45CC(C(N)=O)(C4)C5)nn23)cc1OC [Compound 95, N-(3-carbamoylbicyclo [1.1.1]pentan-1-yl)-7-(3,4-dimethoxyphenyl) pyrazolo[1,5-a]pyrimidine-2-carboxamide]
EC50 (human wild type-CFTR): ≥ 2000 nM

CCOc1ccc(NC(=O)c2cc3nccc(-c4ccc(Cl)cc4F)n3n2)cc1 [Compound 304, 7-(4-chloro-2-fluorophenyl)-N-(4-ethoxyphenyl)pyrazolo [1,5-a]pyrimidine-2-carboxamide]
EC50 (human wild type-CFTR): ≥ 2000 nM

COc1ccc(-c2ccnc3cc(C(=O)N4CCN(C(=O)COC(C)=O)CC4)nn23)cc1OC [Compound 83, 2-(4-(7-(3,4-dimethoxyphenyl)pyrazolo[1,5-a]pyrimidine-2-carbonyl)piperazin-1-yl)-2-oxoethyl acetate]
EC50 (human wild type-CFTR): ≥ 2000 nM

COc1ccc(-c2ccnc3cc(C(=O)N[C@H]4CC[C@@H](C(=O)O)CC4)nn23)cc1OC [Compound 19, (1S,4S)-4-(7-(3,4-dimethoxyphenyl)pyrazolo [1,5-a]pyrimidine-2-carboxamido)cyclohexane-1-carboxylic acid]
solubility at 90 min [1]: > 10 µg/mL

CCN(CC)CCNC(=O)c1ccc(NC(=O)c2cc3nccc(-c4ccc(OC)c(OC)c4)n3n2)cc1 [Compound 221, N-(4-((2-(diethylamino)ethyl)carbamoyl)phenyl)-7-(3,4-dimethoxyphenyl)pyrazolo [1,5-a]pyrimidine-2-carboxamide]
EC50 (human wild type-CFTR): ≥ 2000 nM

COc1ccc(-c2ccnc3cc(C(=O)N4CC(C)NC(C)C4)nn23)cc1OC (stereo not drawn) [Compound 347, (7-(3,4-dimethoxyphenyl)pyrazolo[1,5-a]pyrimidin-2-yl)(3,5-dimethylpiperazin-1-yl)methanone]
EC50 (human wild type-CFTR): ≥ 2000 nM

COc1ccc(-c2ccnc3cc(C(=O)N(C)c4ccc(C(=O)O)cc4)nn23)cc1OC [Compound 234, 4-(7-(3,4-dimethoxyphenyl)-N-methylpyrazolo[1,5-a]pyrimidine-2-carboxamido)benzoic acid]
EC50 (human wild type-CFTR): ≥ 2000 nM

COc1ccc(-c2ccnc3cc(C(=O)Nc4ccc(Br)cc4)nn23)cc1OC [Compound 268, N-(4-bromophenyl)-7-(3,4-dimethoxyphenyl)pyrazolo [1,5-a]pyrimidine-2-carboxamide]
EC50 (human wild type-CFTR): < 200 nM

COc1ccc(-c2ccnc3cc(C(=O)NC45CCC(C(=O)OCCCN6CCOCC6)(CC4)CC5)nn23)cc1OC [Compound 255, 3-morpholinopropyl 4-(7-(3,4-dimethoxyphenyl)pyrazolo [1,5-a]pyrimidine-2-carboxamido)bicyclo[2.2.2] octane-1-carboxylate]
EC50 (human wild type-CFTR): < 200 nM

COc1ccc(-c2ccnc3cc(C(=O)N[C@H]4CC[C@H](C(=O)NCCN5CCOCC5)CC4)nn23)cc1OC [Compound 202, 7-(3,4-dimethoxyphenyl)-N-((1r,4r)-4-((2-morpholinoethyl)carbamoyl)cyclohexyl)pyrazolo [1,5-a]pyrimidine-2-carboxamide]
EC50 (human wild type-CFTR): ≥ 2000 nM

COC(=O)c1ccc(NC(=O)c2cc3nccc(-c4ccc(OC)c(OC)c4)n3n2)cc1C [Compound 191, methyl 4-(7-(3,4-dimethoxyphenyl)pyrazolo [1,5-a]pyrimidine-2-carboxamido)-2-methylbenzoate]
EC50 (human wild type-CFTR): < 200 nM
